Test results taken from patent US11007243B2, “Enzyme-assisted supercritical extraction of nigella sativa seeds” (priority 2016, dated 2021).
Where two headings read alike, the source gives them in different places.

Key:
[1] = system: Albino Wistar rats injected with Ibotenic acid; assay: Open field test in ibotenic acid (I.C.V.) model; type: in vivo; details: IBO i.c.v., oral treatment 30 days, FIG. 2b
Description: Ibotenic acid (IBO) is a non-selective glutamate receptor […] which can be used as a powerful neurotoxin to produce anxiety, stress, depression and dementia. It is injected intra cerebro-ventricularly as a brain lesioning agent specially to destroy the neuronal cells in hippocampal and cortical region responsible for fear, anxiety and depression, as well as learning and memory. […] The NMDA subtype of glutamate receptor is an important mediator of synaptic plasticity and plays a central role in the neurobiological mechanisms of emotionality including fear, anxiety and depression, as well as learning and memory (Barkus et al., European Journal of Pharmacology, 2010; 626(1), 49-56).
Ibotenic acid is administered to Albino Wistar rats at the dose of 5 μg/μL/intracerebroventricularly using Hamilton syringe at the rate of 0.1 μL/min. The animals were then treated continuously for 30 days with Black cumin extracts (BCE) orally at various dosages (thymoquinone content) and evaluated for its anxiolytic properties using elevated plus maze and modified open field apparatus. The various black cumin extracts (BCE) dosages evaluated in the study are outlined in Table-3.
The open field test is conventionally designed to assess the state of anxiety, locomotor and exploratory activity. […] Results were statistically analysed by one-way ANOVA followed by Tukey's multiple comparison test.

[2] = Roghani et al. 2012; cited from earlier work
[3] = system: mice; details: cited from earlier work
[4] = system: rats; details: cited from earlier work
[5] = system: rabbits; details: cited from earlier work
[6] = system: IMR-32 cell line; assay: SRB growth assay on IMR-32 neuronal cell line; type: cell-based; details: Homo sapiens, IMR-32, read-out: GI 50 (concentration causing 50% inhibition of cell growth)
[7] = system: U373-MG cell line; assay: SRB growth assay on U373 MG glial cell line; type: cell-based; details: Homo sapiens, read-out: GI 50 (concentration causing 50% inhibition of cell growth)

Question: For CC12CC3CC(C)(C1)CC(N)(C3)C2 [Memantine], which “Rearing behaviour (rearing frequency), open field” value [1] is on record?
Answer: no significant difference between the BCE4 treated group, memantine group and the control group

Question: Which Memory improvement [2] does the source give for CC1=CC(=O)C(C(C)C)=CC1=O [TQ, 2-isopropyl-5-methyl-1,4-benzoquinone] here?
Answer: memory improvement in a dose dependent manner

Question: What about the LD50 ([3]; intra-peritoneal injection) of the same compound?
Answer: 104.7 mg/kg

Question: And the LD50 ([3]; oral ingestion)?
Answer: 870.9 mg/kg

Question: And the LD50 ([4]; intra-peritoneal injection)?
Answer: 57.5 mg/kg

Question: And the LD50 ([4]; oral ingestion)?
Answer: 794.3 mg/kg

Question: And the LD50 [5]?
Answer: 2400 mg/kg

Question: With COc1cccc2c1C(=O)c1c(O)c3c(c(O)c1C2=O)C[C@@](O)(C(=O)CO)C[C@@H]3O[C@H]1C[C@H](N)[C@H](O)[C@H](C)O1 [Adriamycin] as the compound, how does the GI50 [6] read?
Answer: < 10 mg/L

Question: And the GI50 [7]?
Answer: < 10 mg/L
